Reference: patent publication EP0600950B1, “AMIDE TETRAZOLE ACAT INHIBITORS” (priority 1991, dated 1993)

molecular target: acyl-CoA: cholesterol acyltransferase (ACAT); assay: in vitro ACAT inhibition, rat liver microsomes (LAI); assay type: biochemical; conditions: radiolabeled cholesterol oleate formed from radiolabeled oleic acid
Description: (§1) The test assesses the ability of a test compound to inhibit the acylation of cholesterol by oleic acid by measuring the amount of radiolabeled cholesterol oleate formed from radiolabeled oleic acid in a tissue preparation containing rabbit intestinal microsomes (designated IAI) or from rat liver microsomes (designated LAI).

Compound | IC50
CCCCCCCCCCCCc1nnn(CC(=O)Nc2c(OC)cc(OC)cc2OC)n1 [Example 97, 5-dodecyl-N-(2,4,6-trimethoxy-phenyl)-2H-tetrazole-2-acetamide] | 56 nM
CCCCCCCCCCCCc1nnn(CC(=O)Nc2c(C(C)C)cccc2C(C)C)n1 [Example 91] | 6 nM
CCCCCCCCCCc1nnn(CC(=O)Nc2c(C(C)C)cccc2C(C)C)n1 [Example 88, N-[2,6-bis(1-methylethyl)phenyl]-5-decyl-2H-tetrazole-2-acetamide] | 10 nM
CCCCCCCCCCCCc1nnn(C(C(=O)Nc2c(C(C)C)cccc2C(C)C)c2ccccc2)n1 (racemic) [Example 92, (±)-N-[2,6-bis(1-methylethyl)phenyl]-5-dodecyl-α-phenyl-2H-tetrazole-2-acetamide] | 15 nM
CCCCCCCCCCc1nnn(C(C(=O)Nc2c(OC)cc(OC)cc2OC)c2ccccc2)n1 (racemic) [Example 95, (±)-5-decyl-α-phenyl-N-(2,4,6-trimethoxyphenyl-2H-tetrazole-2-acetamide] | 58 nM
CCCCCCCCCCCCc1nnn(C(C(=O)Nc2ccc(F)cc2F)c2ccccc2)n1 (racemic) [Example 100, (±)-N-(2,4-difluorophenyl-5-dodecyl-α-phenyl-2H-tetrazole-2-acetamide] | 80 nM
COc1cc(OC)c(NC(=O)C(c2ccccc2)n2nnc(C(c3ccccc3)c3ccccc3)n2)c(OC)c1 (racemic) [Example 96, (±)-5-(diphenylmethyl)-α-phenyl-N-(2,4,6-trimethoxyphenyl)-2H-tetrazole-2-acetamide] | 190 nM
CCCCCCCCCCc1nnnn1CC(=O)Nc1c(C(C)C)cccc1C(C)C [Example 89, N-[2,6-bis(1-methylethyl)phenyl]-5-decyl-1H-tetrazole-1-acetamide] | 390 nM
CC(C)c1cccc(C(C)C)c1NC(=O)C(c1ccccc1)n1nnc(C(c2ccccc2)c2ccccc2)n1 (racemic) [Example 90, (±)-N-[2,6-bis(1-methylethyl)phenyl]-5-(diphenylmethyl)-α-phenyl-2H-tetrazole-2-acetamide] | 100 nM
CCCCCCCCCCCCSc1nnn(C(C(=O)Nc2c(C(C)C)cccc2C(C)C)c2ccccc2)n1 (racemic) [Example 94, (±)-N-[2,6-bis(1-methylethyl)phenyl-5-(dodecylthio)-α-phenyl-2H-tetrazole-2-acetamide] | 29 nM
CCCCCCCCCCCCc1nnn(CC(=O)Nc2ccc(F)cc2F)n1 [Example 101, N-(2,4-difluorophenyl)-5-dodecyl-2H tetrazole-2-acetamide] | > 5000 nM
CCCCCCCCCCCCSc1nnn(C(C(=O)Nc2c(OC)cc(OC)cc2OC)c2ccccc2)n1 (racemic) [Example 103, (±)-5-(dodecylthio)-α-phenyl-N-(2,4,6-trimethoxyphenyl)-2H-tetrazole-2-acetamide] | 49 nM
CCCCCCCCCCCCc1nnn(C(C)(C)C(=O)Nc2c(OC)cc(OC)cc2OC)n1 [Example 102, 5-dodecyl-α,α-dimethyl-N-(2,4,6-trimethoxyphenyl)-2H-tetrazole-2-acetamide] | 42 nM
CCCCCCCCCCCCc1nnn(C(CCCCC)C(=O)Nc2c(OC)cc(OC)cc2OC)n1 (racemic) [Example 99, (±)-5-dodecyl-α-pentyl-N-(2,4,6-trimethoxyphenyl)-2H-tetrazole-2-acetamide] | 32 nM
CCCCCCCCCCCC[S+]([O-])c1nnn(C(C(=O)Nc2c(OC)cc(OC)cc2OC)c2ccccc2)n1 (racemic) [Example 104, (±)-5-(dodecylsulfinyl)-α-phenyl-N-(2,4,6)-trimethoxyphenyl)-2H-tetrazole-2-acetamide] | 55 nM
CCCCCCCCCCCCc1nnn(C(CCCCC)C(=O)Nc2c(C(C)C)cccc2C(C)C)n1 (racemic) [Example 93, (±)-N-[2,6-bis(1-methylethyl)phenyl]-5-dodecyl-α-pentyl-2H-tetrazole-2-acetamide] | 22 nM
CCCCCCCCCCCCc1nnn(C(C(=O)Nc2c(OC)cc(OC)cc2OC)c2ccccc2)n1 (racemic) [Example 98, (±)-5-dodecyl-α-phenyl-N-(2,4,6-trimethoxyphenyl)-2H-tetrazole-2-acetamide] | 21 nM

test system: male Sprague-Dawley rats; assay: in vivo screen APCC, cholesterol-fed rats, blood cholesterol; conditions: Table 2, dosed at 30 mg/kg unless otherwise noted, high fat, high cholesterol diet with 0.5% cholic acid overnight, blood cholesterol vs vehicle
Description: In one in vivo screen designated APCC, male Sprague-Dawley rats (200 to 225 g) were randomly divided into treatment groups and dosed at 4 PM with either vehicle (CMC/Tween) or suspensions of compounds in vehicle. The normal chow diet was then replaced with a high fat, high cholesterol diet with 0.5% cholic acid. The rats consumed this diet ad libitum during the night and were sacrificed at 8 AM to obtain blood samples for cholesterol analysis using standard procedures. Statistical differences between mean cholesterol values for the same vehicle were determined using analysis of variance followed by Fisher's least significant test.

Compound | APCC (% ΔTC)
(±)-2-Dodecyl-β-phenyl-N-(2,4-6-trimethoxyphenyl)-2H-tetrazole-5-propanamide and (±)-1-dodecyl-β-phenyl-N-(2,4,6-trimethoxyphenyl)-^1H-tetrazole-5-acetamide [Example 45] | -60%

molecular target: acyl-CoA: cholesterol acyltransferase (ACAT); assay: in vitro ACAT inhibition, rabbit intestinal microsomes (IAI); assay type: biochemical; conditions: radiolabeled cholesterol oleate formed from radiolabeled oleic acid
Description: as §1

Compound | IC50
CCCCCCCCCCCCn1nnc(C(C(=O)Nc2c(OC)ncnc2OC)c2ccccc2)n1 (racemic) [Example 16, (±)-N-(4,6-dimethoxy-5-pyrimidinyl)-2-dodecyl-α-phenyl-2H-tetrazole-5-acetamide] | 8 nM
CCCCCCCCCCCCn1nnc(C(C(=O)Nc2ncccc2C)c2ccccc2)n1 (racemic) [Example 23, (±)-2-dodecyl-N-(3-methyl-2-pyridinyl)-α-phenyl-2H-tetrazole-5-acetamide] | 7.5 nM
CCCCCCCCCCCCn1nnc(C(C(=O)Nc2c(OC)cc(OC)cc2OC)c2ccc(-c3ccccc3)cc2)n1 (racemic) [Example 54, (±)-α-([1,1'-biphenyl]-4-yl)-2-dodecyl-N-(2,4,6-trimethoxy-phenyl)-2H-tetrazole-5-acetamide] | 220 nM
CCCCCCCCCCCCn1nnc(C(C(=O)Nc2cnc3c(C)cc(C)cc3c2-c2ccccc2Cl)c2ccccc2)n1 (racemic) [Example 18, (±)-N-[4-(2-chlorophenyl)-6,8-dimethyl-3-quinolinyl]-2-dodecyl-α-phenyl-2H-tetrazole-5-acetamide] | 28 nM
CCCCCCCCCCCCn1nnc(C(C(=O)Nc2c(OC)cc(OC)cc2OC)c2ccccc2)n1 (racemic) [Example 13, (±) 2-Dodecyl-α-phenyl-N-(2,4,6-trimethoxyphenyl)-2H-tetrazole-5-acetamide] | 9 nM
CCCCCCCCCCCCn1nnc(C(C)C(=O)Nc2c(OC)cc(OC)cc2OC)n1 (racemic) [Example 58, (±)-2-Dodecyl-α-(methyl)-N-(2,4,6-trimethoxy-phenyl)-2H-tetrazole-5-acetamide] | 31 nM
(±)-2-Dodecyl-β-phenyl-N-(2,4-6-trimethoxyphenyl)-2H-tetrazole-5-propanamide and (±)-1-dodecyl-β-phenyl-N-(2,4,6-trimethoxyphenyl)-^1H-tetrazole-5-acetamide [Example 45] | 230 nM
CCCCCCCCCCCCn1nnc(CC(=O)Nc2c(OC)ncnc2OC)n1 [Example 3, N-(4,6-dimethoxy-5-pyrimidinyl)-2-dodecyl-2H-tetra-zole-5-acetamide] | 7 nM
CCCCCCCCn1nnc(C(C(=O)Nc2c(OC)cc(OC)cc2OC)c2ccccc2)n1 (racemic) [Example 31, (±)-2-Octyl-α-phenyl-N-(2,4,6-trimethoxyphenyl)-2H-tetrazole-5-acetamide] | 270 nM
CCCCCCCCCCCCn1nnc(C(C(=O)Nc2ccc3c(C)cc(C)nc3n2)c2ccccc2)n1 (racemic) [Example 17, (±)-N-(5,7-dimethyl-1,8-naphthyridine-2-yl)-2-dodecyl-α-phenyl-2H-tetrazole-5-acetamide] | 190 nM
CCCCCCCCCCCCn1nnc(C(Cc2ccccc2)C(=O)Nc2c(OC)cc(OC)cc2OC)n1 (racemic) [Example 59, (±)-2-Dodecyl-α-(phenylmethyl)-N-(2,4,6-trimethoxyphenyl)-2H-tetrazole-5-acetamide] | 49 nM
CCCCCCCCCCCCn1nnc(C(C(=O)NC(C)(C)C)c2ccccc2)n1 (racemic) [Example 30, (±) N-(1,1-dimethylethyl)-2-dodecyl-α-phenyl-2H-tetrazole-5-acetamide] | 770 nM
CCCCCCCCCCCCCCCCn1nnc(C(C(=O)Nc2c(OC)cc(OC)cc2OC)c2ccccc2)n1 (racemic) [Example 32, (±) 2-Hexadecyl-α-phenyl-N-(2,4,6-trimethoxyphenyl)-2H-tetrazole-5-acetamide] | 53 nM
CCCCCCCCCCCCn1nnc(CC(=O)Nc2ncccc2C)n1 [Example 7, 2-dodecyl-N-(3-methyl-2-pyridinyl)-2H-tetrazole-5-acetamide] | 28 nM
CCCCCCCCCCCCn1nnc(C(C(=O)Nc2c(OC)cc(OC)cc2OC)C2CCCCC2)n1 (racemic) [Example 60, (±)-2-Dodecyl-α-(cyclohexyl)-N-(2,4,6-trimethoxy-phenyl)-2H-tetrazole-5-acetamide] | 28 nM
C=CCC(CC=C)(C(=O)Nc1c(OC)cc(OC)cc1OC)c1nnn(CCCCCCCCCCCC)n1 [Example 28, 2-Dodecyl-α,α'-(2-propenyl)-N-(2,4,6-trimethoxyphenyl)-2H-tetrazole-5-acetamide] | 18 nM
CCCCCCCCCCCCn1nnnc1CC(=O)Nc1c(C(C)C)cccc1C(C)C [Example 2, N-[2,6-Bis(1-methylethyl)phenyl]-1-dodecyl-1H-tetrazole-5-acetamide] | 92 nM
CCCCCCCCCCCCn1nnnc1C(C(=O)Nc1c(C(C)C)cccc1C(C)C)c1ccccc1 (racemic) [Example 26, (±)-N-[2,6-Bis(1-methylethyl)phenyl]-1-dodecyl-α-phenyl-1H-tetrazole-5-acetamide] | 79 nM
CCCCCCCCCCCCn1nnnc1CCC(=O)Nc1c(OC)cc(OC)cc1OC [Example 37, 1-Dodecyl-N-(2,4,6-trimethoxyphenyl)-1H-tetrazole-5-propanamide] | 210 nM
